Test results as given in PubChem BioAssay AID330 (DTP/NCI, 2004).
Values joined by “and” are separate entries in the source; they are usually repeats but may differ in a detail not shown here. Equal values may be shown once. Toxic doses and inconclusive results are not listed.

Tested on: P388 leukemia ip, CD2F1 mice, survival T/C
Assay: NCI In Vivo Anticancer Drug Screen. Data for tumor model P388 Leukemia (intraperitoneal) in CD2F1 (CDF1) mice
Conditions: endpoint: median survival time, higher = longer survival
In short: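 Mice carrying the transplanted tumor received test compound or vehicle. Survival was recorded in each group, and the value is the treated-group measurement divided by that of the vehicle-treated control group.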

[1] = dose: 100.0 mg/kg/injection, schedule: Q04DX003 (ip), vehicle: Klucel (hydroxypropylcellulose) (HPC)
[2] = dose: 200.0 mg/kg/injection, schedule: Q04DX003 (ip), vehicle: Klucel (hydroxypropylcellulose) (HPC)
[3] = dose: 100.0 mg/kg/injection, schedule: Q04DX003 (ip), vehicle: saline with Tween-80
[4] = dose: 25.0 mg/kg/injection, schedule: Q01DX005 (ip), vehicle: Klucel (hydroxypropylcellulose) (HPC)
[5] = dose: 50.0 mg/kg/injection, schedule: Q01DX005 (ip), vehicle: Klucel (hydroxypropylcellulose) (HPC)
[6] = dose: 100.0 mg/kg/injection, schedule: Q01DX005 (ip), vehicle: Klucel (hydroxypropylcellulose) (HPC)
[7] = dose: 50.0 mg/kg/injection, schedule: Q01DX009 (ip), vehicle: saline
[8] = dose: 100.0 mg/kg/injection, schedule: Q01DX009 (ip), vehicle: saline
[9] = dose: 200.0 mg/kg/injection, schedule: Q01DX009 (ip), vehicle: saline
[10] = dose: 15.0 mg/kg/injection, schedule: Q01DX005 (ip), vehicle: saline with Tween-80
[11] = dose: 30.0 mg/kg/injection, schedule: Q01DX005 (ip), vehicle: saline with Tween-80
[12] = dose: 60.0 mg/kg/injection, schedule: Q01DX005 (ip), vehicle: saline with Tween-80
[13] = dose: 50.0 mg/kg/injection, schedule: Q01DX009 (ip), vehicle: saline with Tween-80
[14] = dose: 200.0 mg/kg/injection, schedule: Q01DX005 (ip), vehicle: Klucel (hydroxypropylcellulose) (HPC)
[15] = dose: 25.0 mg/kg/injection, schedule: Q01DX009 (ip), vehicle: Klucel (hydroxypropylcellulose) (HPC)
[16] = dose: 50.0 mg/kg/injection, schedule: Q01DX009 (ip), vehicle: Klucel (hydroxypropylcellulose) (HPC)
[17] = dose: 100.0 mg/kg/injection, schedule: Q01DX009 (ip), vehicle: Klucel (hydroxypropylcellulose) (HPC)

In the case of `CCCCOc1ccc(C(=O)SCCCN=C(N)N)cc1`, the T/C (dose: 12.5 mg/kg/injection, schedule: Q01DX005 (ip), vehicle: saline) is reported as 98 % of control, the T/C (dose: 25.0 mg/kg/injection, schedule: Q01DX005 (ip), vehicle: saline) is reported as 100 % of control and the T/C (dose: 50.0 mg/kg/injection, schedule: Q01DX005 (ip), vehicle: saline) is reported as 96 % of control and 98 % of control and 105 % of control. The T/C (dose: 100.0 mg/kg/injection, schedule: Q01DX005 (ip), vehicle: saline) was 97 % of control.

`C[Si](C)(C)N([Si](C)(C)C)[Si](C)(C)C` was tested, and the T/C (dose: 50.0 mg/kg/injection, schedule: Q01DX009 (ip), vehicle: other) was 97 % of control, the T/C (dose: 100.0 mg/kg/injection, schedule: Q01DX009 (ip), vehicle: other) was 98 % of control and the T/C (dose: 200.0 mg/kg/injection, schedule: Q01DX009 (ip), vehicle: other) was 100 % of control.

For `Cc1ccc(S(=O)(=O)F)c(Cl)c1`, the T/C [1] was 95 % of control, the T/C [2] was 119 % of control and the T/C (dose: 400.0 mg/kg/injection, schedule: Q04DX003 (ip), vehicle: Klucel (hydroxypropylcellulose) (HPC)) was 103 % of control.

`CP1(C)=NP(C)(C)=NP(C)(C)=NP(C)(C)=N1.[Cl][Pt]([Cl])([Cl])[Cl]` was tested, and the T/C (dose: 6.25 mg/kg/injection, schedule: Q04DX003 (ip), vehicle: saline with Tween-80) was 106 % of control, the T/C (dose: 12.5 mg/kg/injection, schedule: Q04DX003 (ip), vehicle: saline with Tween-80) was 106 % of control and 107 % of control and the T/C (dose: 25.0 mg/kg/injection, schedule: Q04DX003 (ip), vehicle: saline with Tween-80) was 110 % of control. For the same compound, the T/C (dose: 50.0 mg/kg/injection, schedule: Q04DX003 (ip), vehicle: saline with Tween-80) was 120 % of control and 122 % of control and the T/C [3] was 118 % of control.

With `CCCCCCCCNC1c2ccccc2CCC1O` (configuration not stated) the T/C [4] was 97 % of control, the T/C [5] was 94 % of control and the T/C [6] was 97 % of control.

For `CN(C)c1ccc(/C=C/c2ccnnc2)cc1`, the T/C [7] was 99 % of control, the T/C [8] was 104 % of control and the T/C [9] was 100 % of control.

`Cc1ccc(S(=O)(=O)OC2C(O)CC(=O)C(OC(=O)c3ccccc3)C2OC(=O)c2ccccc2)cc1` (configuration not stated) was tested, and the T/C (dose: 50.0 mg/kg/injection, schedule: Q01DX001 (ip), vehicle: saline with Tween-80) was 90 % of control, the T/C (dose: 100.0 mg/kg/injection, schedule: Q01DX001 (ip), vehicle: saline with Tween-80) was 89 % of control and the T/C (dose: 400.0 mg/kg/injection, schedule: Q01DX001 (ip), vehicle: saline with Tween-80) was 100 % of control.

`O=C(CCc1ccccc1C(=O)O)c1ccccc1O` was tested, and the T/C (dose: 50.0 mg/kg/injection, schedule: Q01DX005 (ip), vehicle: saline with Tween-80) was 94 % of control, the T/C (dose: 100.0 mg/kg/injection, schedule: Q01DX005 (ip), vehicle: saline with Tween-80) was 105 % of control and the T/C (dose: 200.0 mg/kg/injection, schedule: Q01DX005 (ip), vehicle: saline with Tween-80) was 93 % of control.

In the case of `Clc1ccccc1-c1nnc(-c2cccc(-c3nnc(-c4ccccc4Cl)o3)n2)o1`, the T/C (dose: 7.5 mg/kg/injection, schedule: Q01DX005 (ip), vehicle: saline with Tween-80) is reported as 89 % of control, the T/C [10] is reported as 91 % of control and the T/C [11] is reported as 89 % of control. For the same compound, the T/C [12] was 101 % of control, the T/C (dose: 120.0 mg/kg/injection, schedule: Q01DX005 (ip), vehicle: saline with Tween-80) was 97 % of control and the T/C (dose: 240.0 mg/kg/injection, schedule: Q01DX005 (ip), vehicle: saline with Tween-80) was 104 % of control.

With `c1cc(-c2nnc3ccccn23)c2c(-c3nnc4ccccn34)cccc2c1` the T/C [13] was 100 % of control, the T/C (dose: 100.0 mg/kg/injection, schedule: Q01DX009 (ip), vehicle: saline with Tween-80) was 97 % of control and the T/C (dose: 200.0 mg/kg/injection, schedule: Q01DX009 (ip), vehicle: saline with Tween-80) was 97 % of control.

In the case of `O=NNc1ccc(I)cn1`, the T/C (dose: 6.25 mg/kg/injection, schedule: Q01DX009 (ip), vehicle: water) is reported as 170 % of control and the T/C (dose: 12.5 mg/kg/injection, schedule: Q01DX009 (ip), vehicle: water) is reported as 173 % of control and 190 % of control.

`Oc1ccccc1-c1cc(-c2ccccc2)nc(NCCCCCCNc2nc(-c3ccccc3)cc(-c3ccccc3O)n2)n1` was tested, and the T/C [5] was 90 % of control and the T/C [6] was 90 % of control.

`C=CC(=O)N1CCCC1C(=O)O` (configuration not stated) was tested, and the T/C [7] was 100 % of control, the T/C [8] was 109 % of control and the T/C [9] was 100 % of control.

For `CN1C(=O)OC(c2ccc(Cl)cc2)C1=O` (configuration not stated), the T/C [4] was 100 % of control, the T/C [5] was 100 % of control and the T/C [6] was 107 % of control. The T/C [14] was 100 % of control.

With `CCC(=NCCN=C(CC)c1cc(C)ccc1O)c1cc(C)ccc1O` the T/C [5] was 101 % of control, the T/C [6] was 108 % of control and the T/C [14] was 111 % of control.

For `CC1CN2CC(C)O[Si](CC[Si](C)(C)C)(O1)OC(C)C2` (configuration not stated), the T/C [5] was 104 % of control and the T/C [6] was 90 % of control.

For `COC1(OC)C2(Cl)C(Cl)=C(Cl)C1(Cl)C1C3CC=CC(CC12)S3` (configuration not stated), the T/C (dose: 100.0 mg/kg/injection, schedule: Q04DX002 (ip), vehicle: saline with Tween-80) was 102 % of control, the T/C (dose: 200.0 mg/kg/injection, schedule: Q04DX002 (ip), vehicle: saline with Tween-80) was 100 % of control and the T/C (dose: 400.0 mg/kg/injection, schedule: Q04DX002 (ip), vehicle: saline with Tween-80) was 99 % of control.

In the case of `CN(C)C(=S)c1cccc(-c2ccccn2)n1`, the T/C (dose: 50.0 mg/kg/injection, schedule: Q04DX003 (ip), vehicle: Klucel (hydroxypropylcellulose) (HPC)) is reported as 95 % of control, the T/C [1] is reported as 96 % of control and the T/C [2] is reported as 91 % of control.

With `NC(=S)N/N=C\c1nccc2ncccc12` the T/C (dose: 6.25 mg/kg/injection, schedule: Q04DX002 (ip), vehicle: saline with Tween-80) was 113 % of control and the T/C (dose: 12.5 mg/kg/injection, schedule: Q04DX002 (ip), vehicle: saline with Tween-80) was 124 % of control.

`O=C1c2cc(Cl)ccc2-c2c(NC(=O)C(Cl)Cl)cc(Cl)cc21` was tested, and the T/C (dose: 12.5 mg/kg/injection, schedule: Q01DX009 (ip), vehicle: saline with Tween-80) was 95 % of control, the T/C [15] was 100 % of control and the T/C (dose: 25.0 mg/kg/injection, schedule: Q01DX009 (ip), vehicle: saline with Tween-80) was 95 % of control. For the same compound, the T/C [16] was 88 % of control and the T/C [13] was 100 % of control.

For `CSc1c(N(C)C)c(=O)c1=S`, the T/C [10] was 99 % of control, the T/C [11] was 108 % of control and the T/C [12] was 107 % of control.

For `COC(=O)NC1(NC(=O)OC)NC(=O)c2ccccc2N1`, the T/C (dose: 25.0 mg/kg/injection, schedule: Q01DX005 (ip), vehicle: DMSO) was 98 % of control and the T/C (dose: 50.0 mg/kg/injection, schedule: Q01DX005 (ip), vehicle: DMSO) was 100 % of control.

For `CCOc1cc2cc(/C=N/OCC3CO3)c(Cl)nc2cc1OCC` (configuration not stated), the T/C (dose: 50.0 mg/kg/injection, schedule: Q01DX005 (ip), vehicle: suspension in saline) was 92 % of control, the T/C (dose: 100.0 mg/kg/injection, schedule: Q01DX005 (ip), vehicle: suspension in saline) was 92 % of control and the T/C (dose: 200.0 mg/kg/injection, schedule: Q01DX005 (ip), vehicle: suspension in saline) was 90 % of control.

For `O=C(O)c1ccc(Cl)c(Cl)c1`, the T/C (dose: 12.5 mg/kg/injection, schedule: Q01DX009 (ip), vehicle: Klucel (hydroxypropylcellulose) (HPC)) was 101 % of control, the T/C [15] was 110 % of control and the T/C [16] was 99 % of control. For the same compound, the T/C [17] was 108 % of control.

With `Oc1ccc(CCl)c2cccnc12` the T/C (dose: 12.5 mg/kg/injection, schedule: Q01DX009 (ip), vehicle: saline) was 98 % of control, the T/C (dose: 25.0 mg/kg/injection, schedule: Q01DX009 (ip), vehicle: saline) was 101 % of control and the T/C [8] was 150 % of control.

For `CCC(C)NS(=O)(=O)c1ccccc1C(=O)OC` (configuration not stated), the T/C [5] was 99 % of control, the T/C [6] was 99 % of control and the T/C [14] was 97 % of control.

In the case of `COc1cc(-c2ccc(NC(=O)CC(C)=O)c(OC)c2)ccc1NC(=O)CC(C)=O`, the T/C [3] is reported as 100 % of control, the T/C (dose: 200.0 mg/kg/injection, schedule: Q04DX003 (ip), vehicle: saline with Tween-80) is reported as 100 % of control and the T/C (dose: 400.0 mg/kg/injection, schedule: Q04DX003 (ip), vehicle: saline with Tween-80) is reported as 90 % of control.

For `C1CCNCC1.CC(=O)[CH-]C(=O)c1ccccc1.CC(=O)[CH-]C(=O)c1ccccc1.CC(=O)[CH-]C(=O)c1ccccc1.CC(=O)[CH-]C(=O)c1ccccc1.[Eu+3]`, the T/C [17] was 98 % of control.
